Values joined by “and” are separate entries in the source; they are usually repeats but may differ in a detail not shown here. Equal values may be shown once.
What was measured:
Nociceptin receptor = Nociceptin receptor (Mus musculus, UniProt P35377); experiment: (§1) Agonist activity at NOP receptor in Swiss mouse vas deferens assessed as effect on electrically stimulated contractions; type: functional, tissue-based
[1] = target: Nociceptin receptor (Mus musculus) (UniProt P35377); experiment: as §1; type: functional, tissue-based
Chain of Nociceptin receptor (Mus musculus) (P35377 whole entry): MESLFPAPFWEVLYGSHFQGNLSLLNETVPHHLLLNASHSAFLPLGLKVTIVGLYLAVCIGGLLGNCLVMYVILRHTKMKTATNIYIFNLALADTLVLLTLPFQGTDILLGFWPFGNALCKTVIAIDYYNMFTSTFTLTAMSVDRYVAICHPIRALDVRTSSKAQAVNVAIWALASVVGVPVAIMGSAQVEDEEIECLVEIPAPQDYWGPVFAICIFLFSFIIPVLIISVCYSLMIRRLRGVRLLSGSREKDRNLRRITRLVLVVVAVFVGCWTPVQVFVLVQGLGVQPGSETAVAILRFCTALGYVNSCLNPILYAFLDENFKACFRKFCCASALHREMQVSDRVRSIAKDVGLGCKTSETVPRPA

Chain of Nociceptin receptor (P35377 whole entry): as above

CC(C)C[C@H](NC(=O)[C@H](CCCCN)NC(=O)[C@H](CCCNC(=N)N)NC(=O)[C@H](C)NC(=O)[C@H](CO)NC(=O)[C@H](CCCCN)NC(=O)[C@H](CCCNC(=N)N)NC(=O)C(C)(NC(=O)CNC(=O)[C@@H](NC(=O)[C@H](Cc1ccccc1)NC(=O)CNC(=O)CNC(=O)[C@@H](N)Cc1ccccc1)[C@@H](C)O)C(C)C)C(=O)N[C@@H](C)C(=O)N[C@@H](CC(N)=O)C(=O)N[C@@H](CCC(N)=O)C(N)=O (some centres undefined) [listing 1 of 2 here]
EC50 (Nociceptin receptor): 0.0275 µM

CCC(CC)(NC(=O)CNC(=O)[C@@H](NC(=O)[C@H](Cc1ccccc1)NC(=O)CNC(=O)CNC(=O)[C@@H](N)Cc1ccccc1)[C@@H](C)O)C(=O)N[C@@H](CCCNC(=N)N)C(=O)N[C@@H](CCCCN)C(=O)N[C@@H](CO)C(=O)N[C@@H](C)C(=O)N[C@@H](CCCNC(=N)N)C(=O)N[C@@H](CCCCN)C(=O)N[C@@H](CC(C)C)C(=O)N[C@@H](C)C(=O)N[C@@H](CC(N)=O)C(=O)N[C@@H](CCC(N)=O)C(N)=O
EC50 (Nociceptin receptor): 0.0123 µM
Emax [1]: 89%

CC(C)C[C@H](NC(=O)[C@H](CCCCN)NC(=O)[C@H](CCCNC(=N)N)NC(=O)C(C)(NC(=O)[C@H](CO)NC(=O)[C@H](CCCCN)NC(=O)[C@H](CCCNC(=N)N)NC(=O)[C@H](C)NC(=O)CNC(=O)[C@@H](NC(=O)[C@H](Cc1ccccc1)NC(=O)CNC(=O)CNC(=O)[C@@H](N)Cc1ccccc1)[C@@H](C)O)C(C)C)C(=O)N[C@@H](C)C(=O)N[C@@H](CC(N)=O)C(=O)N[C@@H](CCC(N)=O)C(N)=O (some centres undefined) [listing 1 of 3 here]
EC50 (Nociceptin receptor): 0.0195 µM

CC(C)C[C@H](NC(=O)[C@H](CCCCN)NC(=O)[C@H](CCCNC(=N)N)NC(=O)[C@H](C)NC(=O)[C@H](CO)NC(=O)[C@H](CCCCN)NC(=O)[C@H](CCCNC(=N)N)NC(=O)C(C)(C)NC(=O)CNC(=O)[C@@H](NC(=O)[C@H](Cc1ccccc1)NC(=O)CNC(=O)CNC(=O)[C@@H](N)Cc1ccccc1)[C@@H](C)O)C(=O)N[C@@H](C)C(=O)N[C@@H](CC(N)=O)C(=O)N[C@@H](CCC(N)=O)C(N)=O
EC50 (Nociceptin receptor): 0.00447 µM
Emax [1]: 96%

CC(C)C[C@H](NC(=O)[C@H](CCCCN)NC(=O)[C@H](CCCNC(=N)N)NC(=O)[C@H](C)NC(=O)[C@H](CO)NC(=O)[C@H](CCCCN)NC(=O)[C@H](CCCNC(=N)N)NC(=O)C(C)(CC(C)C)NC(=O)CNC(=O)[C@@H](NC(=O)[C@H](Cc1ccccc1)NC(=O)CNC(=O)CNC(=O)[C@@H](N)Cc1ccccc1)[C@H](C)O)C(=O)N[C@@H](C)C(=O)N[C@@H](CC(N)=O)C(=O)N[C@@H](CCC(N)=O)C(N)=O (some centres undefined)
Emax [1]: 84% and 95%

CC[C@](C)(NC(=O)CNC(=O)[C@@H](NC(=O)[C@H](Cc1ccccc1)NC(=O)CNC(=O)CNC(=O)[C@@H](N)Cc1ccccc1)[C@@H](C)O)C(=O)N[C@@H](CCCNC(=N)N)C(=O)N[C@@H](CCCCN)C(=O)N[C@@H](CO)C(=O)N[C@@H](C)C(=O)N[C@@H](CCCNC(=N)N)C(=O)N[C@@H](CCCCN)C(=O)N[C@@H](CC(C)C)C(=O)N[C@@H](C)C(=O)N[C@@H](CC(N)=O)C(=O)N[C@@H](CCC(N)=O)C(N)=O [listing 1 of 3 here]
Emax [1]: 91% and 88%

CC(C)C[C@H](NC(=O)[C@H](CCCCN)NC(=O)[C@H](CCCNC(=N)N)NC(=O)C(C)(NC(=O)[C@H](CO)NC(=O)[C@H](CCCCN)NC(=O)[C@H](CCCNC(=N)N)NC(=O)[C@H](C)NC(=O)CNC(=O)[C@@H](NC(=O)[C@H](Cc1ccccc1)NC(=O)CNC(=O)CNC(=O)[C@@H](N)Cc1ccccc1)[C@@H](C)O)C(C)C)C(=O)N[C@@H](C)C(=O)N[C@@H](CC(N)=O)C(=O)N[C@@H](CCC(N)=O)C(N)=O (some centres undefined) [listing 2 of 3 here]
Emax [1]: 93% and 86%

CC(C)C[C@H](NC(=O)[C@H](CCCCN)NC(=O)[C@H](CCCNC(=N)N)NC(=O)C1(NC(=O)[C@H](CO)NC(=O)[C@H](CCCCN)NC(=O)[C@H](CCCNC(=N)N)NC(=O)[C@H](C)NC(=O)CNC(=O)[C@@H](NC(=O)[C@H](Cc2ccccc2)NC(=O)CNC(=O)CNC(=O)[C@@H](N)Cc2ccccc2)[C@@H](C)O)CCCCC1)C(=O)N[C@@H](C)C(=O)N[C@@H](CC(N)=O)C(=O)N[C@@H](CCC(N)=O)C(N)=O
EC50 (Nociceptin receptor): 0.0162 µM
Emax [1]: 89%

CCC(CC)(NC(=O)[C@H](CO)NC(=O)[C@H](CCCCN)NC(=O)[C@H](CCCNC(=N)N)NC(=O)[C@H](C)NC(=O)CNC(=O)[C@@H](NC(=O)[C@H](Cc1ccccc1)NC(=O)CNC(=O)CNC(=O)[C@@H](N)Cc1ccccc1)[C@@H](C)O)C(=O)N[C@@H](CCCNC(=N)N)C(=O)N[C@@H](CCCCN)C(=O)N[C@@H](CC(C)C)C(=O)N[C@@H](C)C(=O)N[C@@H](CC(N)=O)C(=O)N[C@@H](CCC(N)=O)C(N)=O
EC50 (Nociceptin receptor): 0.0178 µM
Emax [1]: 87%

CC(C)C[C@H](NC(=O)[C@H](CCCCN)NC(=O)[C@H](CCCNC(=N)N)NC(=O)[C@H](C)NC(=O)[C@H](CO)NC(=O)[C@H](CCCCN)NC(=O)[C@H](CCCNC(=N)N)NC(=O)C(C)(CC(C)C)NC(=O)CNC(=O)[C@@H](NC(=O)[C@H](Cc1ccccc1)NC(=O)CNC(=O)CNC(=O)[C@@H](N)Cc1ccccc1)[C@@H](C)O)C(=O)N[C@@H](C)C(=O)N[C@@H](CC(N)=O)C(=O)N[C@@H](CCC(N)=O)C(N)=O (some centres undefined) [listing 1 of 2 here]
EC50 (Nociceptin receptor): 0.0468 µM

CC[C@](C)(NC(=O)CNC(=O)[C@@H](NC(=O)[C@H](Cc1ccccc1)NC(=O)CNC(=O)CNC(=O)[C@@H](N)Cc1ccccc1)[C@@H](C)O)C(=O)N[C@@H](CCCNC(=N)N)C(=O)N[C@@H](CCCCN)C(=O)N[C@@H](CO)C(=O)N[C@@H](C)C(=O)N[C@@H](CCCNC(=N)N)C(=O)N[C@@H](CCCCN)C(=O)N[C@@H](CC(C)C)C(=O)N[C@@H](C)C(=O)N[C@@H](CC(N)=O)C(=O)N[C@@H](CCC(N)=O)C(N)=O [listing 2 of 3 here]
EC50 (Nociceptin receptor): 0.0148 µM

CC(C)C[C@H](NC(=O)[C@H](CCCCN)NC(=O)[C@H](CCCNC(=N)N)NC(=O)C(C)(CC(C)C)NC(=O)[C@H](CO)NC(=O)[C@H](CCCCN)NC(=O)[C@H](CCCNC(=N)N)NC(=O)[C@H](C)NC(=O)CNC(=O)[C@@H](NC(=O)[C@H](Cc1ccccc1)NC(=O)CNC(=O)CNC(=O)[C@@H](N)Cc1ccccc1)[C@@H](C)O)C(=O)N[C@@H](C)C(=O)N[C@@H](CC(N)=O)C(=O)N[C@@H](CCC(N)=O)C(N)=O (some centres undefined)
EC50 (Nociceptin receptor): 0.0135 µM
Emax [1]: 91%

CC(C)C[C@H](NC(=O)[C@H](CCCCN)NC(=O)[C@H](CCCNC(=N)N)NC(=O)C(C)(NC(=O)[C@H](CO)NC(=O)[C@H](CCCCN)NC(=O)[C@H](CCCNC(=N)N)NC(=O)[C@H](C)NC(=O)CNC(=O)[C@@H](NC(=O)[C@H](Cc1ccccc1)NC(=O)CNC(=O)CNC(=O)[C@@H](N)Cc1ccccc1)[C@@H](C)O)C(C)C)C(=O)N[C@@H](C)C(=O)N[C@@H](CC(N)=O)C(=O)N[C@@H](CCC(N)=O)C(N)=O (some centres undefined) [listing 3 of 3 here]
EC50 (Nociceptin receptor): 0.0148 µM

CC(C)C[C@H](NC(=O)[C@H](CCCCN)NC(=O)[C@H](CCCNC(=N)N)NC(=O)[C@H](C)NC(=O)[C@H](CO)NC(=O)[C@H](CCCCN)NC(=O)[C@H](CCCNC(=N)N)NC(=O)C(C)(NC(=O)CNC(=O)[C@@H](NC(=O)[C@H](Cc1ccccc1)NC(=O)CNC(=O)CNC(=O)[C@@H](N)Cc1ccccc1)[C@H](C)O)C(C)C)C(=O)N[C@@H](C)C(=O)N[C@@H](CC(N)=O)C(=O)N[C@@H](CCC(N)=O)C(N)=O (some centres undefined)
Emax [1]: 88% and 95%

CC(C)C[C@H](NC(=O)[C@H](CCCCN)NC(=O)[C@H](CCCNC(=N)N)NC(=O)C1(NC(=O)[C@H](CO)NC(=O)[C@H](CCCCN)NC(=O)[C@H](CCCNC(=N)N)NC(=O)[C@H](C)NC(=O)CNC(=O)[C@@H](NC(=O)[C@H](Cc2ccccc2)NC(=O)CNC(=O)CNC(=O)[C@@H](N)Cc2ccccc2)[C@@H](C)O)CCCC1)C(=O)N[C@@H](C)C(=O)N[C@@H](CC(N)=O)C(=O)N[C@@H](CCC(N)=O)C(N)=O
EC50 (Nociceptin receptor): 0.00832 µM
Emax [1]: 89%

CC(C)C[C@H](NC(=O)[C@H](CCCCN)NC(=O)[C@H](CCCNC(=N)N)NC(=O)[C@H](C)NC(=O)[C@H](CO)NC(=O)[C@H](CCCCN)NC(=O)[C@H](CCCNC(=N)N)NC(=O)C1(NC(=O)CNC(=O)[C@@H](NC(=O)[C@H](Cc2ccccc2)NC(=O)CNC(=O)CNC(=O)[C@@H](N)Cc2ccccc2)[C@@H](C)O)CCCCC1)C(=O)N[C@@H](C)C(=O)N[C@@H](CC(N)=O)C(=O)N[C@@H](CCC(N)=O)C(N)=O
EC50 (Nociceptin receptor): 0.0631 µM
Emax [1]: 87%

CCCC(CCC)(NC(=O)CNC(=O)[C@@H](NC(=O)[C@H](Cc1ccccc1)NC(=O)CNC(=O)CNC(=O)[C@@H](N)Cc1ccccc1)[C@@H](C)O)C(=O)N[C@@H](CCCNC(=N)N)C(=O)N[C@@H](CCCCN)C(=O)N[C@@H](CO)C(=O)N[C@@H](C)C(=O)N[C@@H](CCCNC(=N)N)C(=O)N[C@@H](CCCCN)C(=O)N[C@@H](CC(C)C)C(=O)N[C@@H](C)C(=O)N[C@@H](CC(N)=O)C(=O)N[C@@H](CCC(N)=O)C(N)=O
EC50 (Nociceptin receptor): 0.0126 µM
Emax [1]: 91%

CC[C@](C)(NC(=O)CNC(=O)[C@@H](NC(=O)[C@H](Cc1ccccc1)NC(=O)CNC(=O)CNC(=O)[C@@H](N)Cc1ccccc1)[C@@H](C)O)C(=O)N[C@@H](CCCNC(=N)N)C(=O)N[C@@H](CCCCN)C(=O)N[C@@H](CO)C(=O)N[C@@H](C)C(=O)N[C@@H](CCCNC(=N)N)C(=O)N[C@@H](CCCCN)C(=O)N[C@@H](CC(C)C)C(=O)N[C@@H](C)C(=O)N[C@@H](CC(N)=O)C(=O)N[C@@H](CCC(N)=O)C(N)=O [listing 3 of 3 here]
EC50 (Nociceptin receptor): 0.024 µM

CC(C)C[C@H](NC(=O)[C@H](CCCCN)NC(=O)[C@H](CCCNC(=N)N)NC(=O)[C@H](C)NC(=O)[C@H](CO)NC(=O)[C@H](CCCCN)NC(=O)[C@H](CCCNC(=N)N)NC(=O)C(C)(CC(C)C)NC(=O)CNC(=O)[C@@H](NC(=O)[C@H](Cc1ccccc1)NC(=O)CNC(=O)CNC(=O)[C@@H](N)Cc1ccccc1)[C@@H](C)O)C(=O)N[C@@H](C)C(=O)N[C@@H](CC(N)=O)C(=O)N[C@@H](CCC(N)=O)C(N)=O (some centres undefined) [listing 2 of 2 here]
EC50 (Nociceptin receptor): 0.0759 µM

CC(C)C[C@H](NC(=O)[C@H](CCCCN)NC(=O)[C@H](CCCNC(=N)N)NC(=O)[C@H](C)NC(=O)[C@H](CO)NC(=O)[C@H](CCCCN)NC(=O)[C@H](CCCNC(=N)N)NC(=O)C(C)(NC(=O)CNC(=O)[C@@H](NC(=O)[C@H](Cc1ccccc1)NC(=O)CNC(=O)CNC(=O)[C@@H](N)Cc1ccccc1)[C@@H](C)O)C(C)C)C(=O)N[C@@H](C)C(=O)N[C@@H](CC(N)=O)C(=O)N[C@@H](CCC(N)=O)C(N)=O (some centres undefined) [listing 2 of 2 here]
EC50 (Nociceptin receptor): 0.055 µM

CCC(C)(NC(=O)[C@H](CO)NC(=O)[C@H](CCCCN)NC(=O)[C@H](CCCNC(=N)N)NC(=O)[C@H](C)NC(=O)CNC(=O)[C@@H](NC(=O)[C@H](Cc1ccccc1)NC(=O)CNC(=O)CNC(=O)[C@@H](N)Cc1ccccc1)[C@@H](C)O)C(=O)N[C@@H](CCCNC(=N)N)C(=O)N[C@@H](CCCCN)C(=O)N[C@@H](CC(C)C)C(=O)N[C@@H](C)C(=O)N[C@@H](CC(N)=O)C(=O)N[C@@H](CCC(N)=O)C(N)=O (some centres undefined)
Emax [1]: 90%

Source: ChEMBL document CHEMBL1148695, “Synthesis and biological activity of nociceptin/orphanin FQ analogues substituted in position 7 or 11 with Calpha,alpha-dialkylated amino acids” (Bioorg Med Chem, 2007)
